Read-outs that look alike come from different tables or passages of the source.
Columns and labels:
NMDA receptor = details: cited from earlier work; for reversal of NMDA antagonist activity / blocking effect by glycine: presence of glycine
[1] = biological target: T1, strychnineinsensitive glycine recognition site (NMDA receptor-ion channel complex) (Rattus norvegicus, UniProt P35439); assay: Glycine binding assay, [3H]glycine, synaptic plasma membranes; details: 10 nM [3H]glycine, pH 7.4, rat forebrain SPM; read-out: Ki apparent, Gly
T1 construct: Synaptic plasma membranes (SPM) were prepared from rat forebrain; from tissue; host or cells: rat forebrain synaptic plasma membranes
Procedure: Synaptic plasma membranes (SPM) were prepared from rat forebrain and stored as previously described [J. B. Monahan and J. Michel, J. Neurochem, 48, 1699-1708 (1987)]. Frozen membranes were thawed and diluted 1:20 with 0.04% triton X-100 in 50 mM tris/acetate (pH 7.4). Following incubation at 37° C. for 30 min., the SPM were collected by centrifugation at 95,000 X g for 15 min. The pellet was resuspended in 50 mM tris/acetate (pH 7.4, triton-free) and hand-homogenized five times. The membranes were again centrifuged as above. The pellet was washed two additional times with 50 mM tris/acetate (without homogenization) and centrifuged. The final pellet was resuspended with homogenization in 50 mM tris/acetate.
In the general receptor binding assay procedure, 10 nM [^3 H]glycine was added to the appropriate concentration of the test compounds and the assay initiated by the addition of 0.2-0.4 mg of ice cold SPM. The assay, which was done in 1.5 ml centrifuge tubes, was adjusted to a total volume of 1.0 ml with all additions being made in 50 mM tris/ acetate, pH 7.4 at 4° C. After a 10 minute incubation at 2° C., the samples were centrifuged for 15 min. at 12,000 g (4° C.) in a Beckman Microfuge 12. The supernatant was aspirated and the tube tip containing the pelleted membranes cut off and agitated in 0.5 ml of Beckman BTS-450 tissue solubilizer for a minimum of 6 hours at room temperature. Beckman MP scintillation cocktail (5 ml) containing 7 ml/liter acetic acid was then added and the samples counted on a Beckman LS 5800 liquid scintillation counter with automatic corrections for quenching and counting efficiency. […] The binding of [^3 H]glycine to the SPM was analyzed using Scatchard and Hill transformations and the Ki for other compounds was determined using logit-log analysis. Calculations and regression analysis were performed using templates developed for Lotus 123 as previously described [Pullan et al, Id.].

[2] = biological target: T2, NMDA receptor (rat brain receptor expressed in Xenopus oocytes) (Rattus norvegicus, UniProt P35439); assay: Xenopus oocytes injected with rat cortex mRNA, blocking of glycine effects (voltage clamp); assay type: cell-based; details: 100 μM NMDA
T2 construct: PolyA+ RNA (mRNA) was extracted from adult male rat cortex; expressed in transfected cells; host or cells: Xenopus laevis oocytes microinjected with rat cortex poly(A)+ RNA
Procedure: PolyA+ RNA (mRNA) was extracted from adult male rat cortex using the refined guanidinium thiocyanate method developed by Han et al [J. H. Han et al., Biochemistry, 26, 1617-1625 (1987)] and the oligo (dT) cellulose chromatography procedure of Adiv and Leder [H. Aviv et al., Proc. Nat. Acad. Sci., 69, 1408-1412 (1972)]. Aliquots of mRNA (1.0 mg/ml water) were stored at -20° C.
Gravid adult female Xenopus laevis (Xenopus One, Ann Arbor, Mich. or NASCO, Ft. Atkinson, Wis.) were anaesthetized with 0.2% (w/v) Tricaine (3-amino benzoic acid ethyl ester; Sigma) and subjected to partial ovarectomy. Excised oocytes were then prepared and microinjected [N. W. Kleckner et al, Science 241 835-837 (1988)]. Oocytes were treated for one hour in Barth's solution (88.0 mM NaCl, 1.0 mM KCl, 2.4 mM NaHCO3, 0.41 mM CaCl2, 0.82 mM MgSO4, 10.0 μg/ml penicillin, 100.0 μg/ml streptomycin, 10.0 mM HEPES, pH 7.5) containing 1.5 mg/ml Neutral Protease (Beohringer Mannheim Biochemicals, Grade II). Oocytes were then placed in Barth's solution containing 100.0 mM sucrose and manually defolliculated with fine forceps. Defolliculated oocytes were then microinjected with approximately 50 ng of mRNA in Barth's solution at 16°-18° C.
Oocytes were assayed 2-8 days later for rat brain receptor expression via single electrode voltage. clamp (Axoclamp 2A, Axon Instruments) in a manner similar to that previously described [Kleckner et al, Id.]. […] Drugs were added to the perfusate and inward currents induced by agonist compounds were measured at peak steady state response. […] Antagonist compounds were perfused for a minimum of 3.0 minutes prior to subsequent agonist co-application. Data are expressed as percent maximal response (mean±S.E.M.). Half-maximal responses (EC50 's) and slopes for dose response data were determined from the least squares fit to the logistic regression equation.

hippocampal slice = assay: Epileptic hippocampal slice, 0% Mg+2-induced epilepsy; assay type: cell-based, Sprague-Dawley albino rat; details: Rattus norvegicus, 300 μM Compound No. 35, 0% Mg+2
Description: Hippocampal slices (450 μ) were obtained from male Sprague-Dawley albino rats (100-325 g). The method of slice preparation has been detailed elsewhere [A. H. Ganong et al., Brain Res., 273, 170-174 (1983)]. Slices were stored in a humidified interface chamber at room temperature and bathed in artificial cerebrospinal fluid (ACSF) which contained (in mM): NaCl 124.0, KCl 5.0, KH2 PO4 1.0, NaHCOP3 26.4, CaCl2, 2.0, MgSO4 1.5 and D-glucose 10.0, and was equilibrated with 95% 02:5% CO2. When needed for study, slices were placed one at a time in a small submersion chamber maintained at 35° C. where they were continuously perfused at 1.0-2.0 ml/min. Fresh solutions reached the recording chamber within 20 seconds and the perfusate was completely changed over within a minute. Additional oxygen and stirring was provided by an air jet (95% O2 :5% CO2) directed at the surface of the ACSF. Standard electrophysiological techniques were employed. Extracellular recording electrodes were glass micropipettes filled with 2.0 M NaCl and broken back to 2.0 m.OMEGA. resistance. All recording was from the somatic region of CA1. […] Intracellular recording electrodes of 60-100 MQ resistance were filled with 2.5 M KAc. […] The Schaffer collateral/commissural fibers were stimulated with tungsten bipolar stimulating electrodes at a rate of 0.03 Hz. The resulting field EPSP (S/C-CA1 EPSP) and the DC potential were amplified by an Axoprobe 1 amplifier and were continuously monitored on a Tektronix 5111A storage oscilloscope and a Gould 2300 chart recorder with a Gould Waveform storage module. Epileptiform activity was induced by omission of Mg++ ions from the perfusate, which removes the Mg++ mediated voltage-dependent block of the NMDA. receptor [B. Ault et al., J. Physiol., 307, 413-428 (1980)], or by the addition of the GABA antagonist picrotoxin. Drugs were added to the perfusate and zero magnesium refers to solutions which contain no added magnesium. The amplitude of the stimulus evoked primary population spike was used to assess the effects of experimental manipulations on the efficacy of synaptic function.

[3] = biological target: N-methyl-D-aspartate (NMDA) receptor site; assay: Glutamate (NMDA) binding assay, L-[3H]glutamate, synaptic plasma membranes; details: L-[3H]glutamate 12.5 nM, pH 7.4, 0-4° C.; read-out: Ki apparent, NMDA
Procedure: The purpose of this assay is to determine the binding affinity of a compound of Formula I for the N-methyl-D-aspartate (NMDA) receptor site. This procedure was carried out as follows:
Synaptic plasma membranes (SPM) were prepared as previously described [Monahan, J. B. and Michel, J., "Identification and Characterization of an N-methyl-D-aspartate-specific L-[^3 H]glutamate Recognition Site in Synaptic Plasma Membranes, J. Neurochem., 48, 1699-1708 (1987)]. The SPM were stored at a concentration of 10-15 mg/ml in 0.32 M sucrose, 0.5 mM EDTA, 1 mM MgSO4, 5 mM Tris/SO4, pH 7.4, under liquid nitrogen. The identity and purity of the subcellular fractions were confirmed by both electron microscopy and marker enzymes. Protein concentrations were determined by using a modification of the method of Lowry [Ohnishi, S. T. and Barr, J. K., "A Simplified Method of Quantitating Proteins Using the Biuret and Phenol Reagents", Anal. Biochem., 86, 193-197 (1978)]. The SPM were thawed at room temperature, diluted twenty-fold with 50 mM Tris/acetate, pH 7.4, incubated at 37° C. for 30 minutes, and centrifuged at 100,000 g for 15 minutes. The dilution, incubation, and centrifugation was repeated a total of three times. This general method involved adding 12.5 nM of the L-[^3 H]glutamate radioligand to the appropriate concentration of the test compound and initiating the assay by the addition of ice cold SPM (0.2-0.45 mg). The binding assays were performed in 1.5 ml centrifuge tubes with the total volume adjusted to 1.0 ml. Additions of test compounds were made in 50 mM Tris/acetate, pH 7.4 and incubations were carried out at 0°-4° C. The incubation time for the NMDA binding assay was 10 minutes. To terminate the incubation, the samples were centrifuged for 15 minutes at 12,000 g and 4° C. in a Beckman Microfuge 12. The supernatant was aspirated and the pelleted membranes dissolved in Beckman Ready-Protein scintillation cocktail and the samples counted on a Beckman LS 5800 or 3801 liquid scintillation counter with automatic corrections for quenching and counting efficiency. Nonspecific binding was defined as the residual binding in the presence of 0.5 mM NMDA and was typically 15-25% of the total binding in the NMDA binding assay. Radioligand binding to the SPM was analyzed using Scatchard and Hill transformations and the Ki values of the compounds determined using logit-log transformations. Calculations and regression analysis were performed using templates developed for Lotus 1, 2, 3 as previously described [Pullan, L. M. "Automated Radioligand Receptor Binding Analysis with Templates for Lotus", Computer Appln. Biosci., 3 131 (1987)]. Binding results are reported in Table II for example compounds of the invention.

Cerebellar cGMP = assay: Assay for effect on cGMP (cerebellum, intracisternal injection); assay type: in vivo, Swiss Hausche mice; details: D-Serine (100 μg) alone, ± SEM
Procedure: Male Swiss Hausche mice (25-30 g) were injected intracisternally (i.c.t.) with glycine agonists 10 minutes prior to sacrifice by focussed microwave irradiation. Compounds of the invention were injected intracisternally 2 minutes prior to the agonist. For intracisternal injections, al agonists were dissolved in HCl and diluted with isotonic saline prior to adjustment of the pH to between 6 and 7 with NaOH. The compounds of the invention were dissolved in isotonic saline and all compounds were administered in a volume of 5 μl.
Hydrochloric acid in extracts of the cerebellum were freeze-dried for assay of cGMP with a commercial RIA kit (NEN). Protein determinations (Lowery) and statistics (Dunett's t-test) were performed as described previously [P. L. Wcod et al., Neurochem., 19, 975-982 (1980)]. Groups consisted of 7-10 mice.

[4] = IC50, 1.0 μM Gly, 1.0 μM glycine

## O=C(O)c1cc(O)c2ccccc2n1 [kynurenic acid, 2-carboxy-4-hydroxyquinoline]
NMDA receptor
  NMDA antagonist activity: known NMDA antagonist
  reversal of NMDA antagonist activity / blocking effect by glycine: can be reversed by the presence of glycine

## CC(C)OC(=O)Cc1c(C(=O)O)[nH]c2cc(Cl)ccc12 [Compound No. 35, 2-propyl 2-carboxy-6-chloro-3-indoleacetate]
[1]
  Ki: 3.9 µM
[2]; [4]
  IC50: 4.5 ± 0.5 µM
[2]; IC50, 10 μM Gly, 10 μM glycine
  IC50: 68.5 ± 13.5 µM
Hippocampal slice; read-out: Burst duration
  activity at 300 µM: 19.2%
Hippocampal slice; read-out: Primary population spike amplitude
  activity at 300 µM: 82.1%
Hippocampal slice; read-out: Spontaneous activity
  activity at 300 µM: 0%
Hippocampal slice; read-out: Sum of additional population spike amplitude
  activity at 300 µM: 35.6%

## O=C(O)c1cc(O)c2ccc(Cl)cc2n1 [7-chlorokynurenic acid]
NMDA receptor
  NMDA antagonist activity: NMDA antagonist
  reversal of NMDA antagonist activity / blocking effect by glycine: blocking effect can be reversed by glycine

## NC(=O)Cc1c(C(=O)O)[nH]c2cc(Cl)ccc12 [compound 37, 2-carboxy-6-chloro-3-indoleacetamide]
[1]
  Ki: 1.2 µM
[2]; [4]
  IC50: 3.4 ± 0.9 µM

## CCOC(=O)Cc1c(C(=O)O)[nH]c2cc(Cl)ccc12 [compound 31, ethyl 2-carboxy-6-chloro-3-indoleacetate]
[3]
  Ki: > 100 µM
[1]
  Ki: 0.47 µM
[2]; [4]
  IC50: 1.6 ± 0.01 µM
[2]; IC50, 10 μM Gly, 10 μM glycine
  IC50: 16.1 ± 1.4 µM

## N[C@H](CO)C(=O)O [D-Serine, reference compound]
Cerebellar cGMP
  Cerebellar cGMP: 17.5 ± 2.4 pmol/mg protein
